Laboratory results reported in patent EP2193713A1, “Method for fighting animal pests without damaging pollinating insects” (Bayer CropScience AG, priority 2008, dated 2010).
Where two headings read alike, the source gives them in different places.

Legend:
Type in all cases: in vivo
[1] = system: Bombus terrestris; experiment: Tent test / drench application / bumblebees: flight activity at the hive; conditions: for Flugaktivität am Stock, Zahl der Hummeln / 10 min: 20 mg a.s./pl.
Experimental: (§1) Der Versuch wurde wie folgt durchgeführt:
Die Zahl der Hummeln, die im Zeitraum von 10 min in den Stock geflogen sind oder diesen verlassen haben wurde bestimmt. Tabelle 7 (siehe auch Figur 7)

[2] = system: Apis mellifera; conditions: for Zahl toter Arbeiterbienen: 20 mg a.s./pl.
Description: (§2) Die Mortalität von Arbeiterbienen vor dem Bienenstock wird mittels einer Falle für tote Bienen (dead bee trap) bestimmt. Die Falle besteht aus Maschendraht und ist vor dem Bienenstock angebracht. Einzelne, lebende Bienen können die Maschen des Drahts passieren, der Transport toter Bienen durch die Maschen ist nicht möglich, weswegen tote Bienen sich in der Falle ansammeln. Tabelle 1 (siehe auch Figur 1)

[3] = system: Apis mellifera; experiment: Tunnel test / spray application / bees: acute mortality of pupae in front of the hive
Description: (§3) Der Test wurde gemäß EPPO (European Plant Protection Organisation) Leitlinie 170 wie folgt durchgeführt:
Tabelle 2 (siehe auch Figur 2)

[4] = system: Apis mellifera; experiment: Tunnel test / spray application / bees: brood development (share of comb cells); conditions: for Brutentwicklung: result in words, 75 und 150 g a.s./ha
Description: as §3
Über alle Waben eines Bienenstocks wird der jeweilige Anteil an Zellen bestimmt, der durch Pollen, Nektar, Eier, Larven oder Puppen belegt ist bzw. leer ist. […]

[5] = system: Apis mellifera; experiment: Tent test / drench application / bees: foraging activity; conditions: for Aktivität der Nahrungssuche, Zahl der Bienen / min / 4 m^2: 20 mg a.s./pl.
Description: Der Test wurde wie folgt durchgeführt:

[6] = system: Bombus terrestris; experiment: Tent test / drench application / bumblebees: pollination activity on tomato; conditions: for Zahl der Blüten: markierte Blüten / Zahl der Blüten: offene Blüten: 20 mg a.s./pl.
Description: as §1
Bei Tomaten kommt es durch den Besuch von Hummeln zu einer Farbveränderung der Staubgefäße (markierte Blüten). Es wurde die Zahl offener und markierter Blüten bestimmt. Tabelle 8 (siehe auch Figur 8)

[7] = system: Apis mellifera
Description: as §3, §2

[8] = result in words, 20 mg a.s. / Pflanze, 2 applications (Tag 0 und Tag 14)
[9] = 75 g a.s./ha, 0 DAA c (17:15 Uhr)
[10] = 75 g a.s./ha, -3 DAA (before application)
[11] = 150 g a.s./ha, 0 DAA c (17:15 Uhr)
[12] = 150 g a.s./ha, -3 DAA (before application)
[13] = 75 g a.s./ha, 1 Tag vor Applikation
[14] = 75 g a.s./ha, 6 Tage nach Applikation
[15] = 75 g a.s./ha, 14 Tage nach Applikation
[16] = 75 g a.s./ha, 27 Tage nach Applikation
[17] = 150 g a.s./ha, 1 Tag vor Applikation
[18] = 150 g a.s./ha, 6 Tage nach Applikation
[19] = 150 g a.s./ha, 14 Tage nach Applikation
[20] = 150 g a.s./ha, 27 Tage nach Applikation

O=C1C=C(N(Cc2ccc(Cl)nc2)CC(F)F)CO1 [I-5, 4-{[(6-Chlorpyrid-3-yl)methyl](2,2-difluorethyl)amino}furan-2(5H)-on]
Flugaktivität am Stock, Zahl der Hummeln / 10 min ([1]; 0 DAA): 9 Hummeln / 10 min
Flugaktivität am Stock, Zahl der Hummeln / 10 min ([1]; 6 DAA after first application): 11 Hummeln / 10 min
Flugaktivität am Stock, Zahl der Hummeln / 10 min ([1]; 8 DAA after first application): 15 Hummeln / 10 min
Flugaktivität am Stock, Zahl der Hummeln / 10 min ([1]; 13 DAA after first application): 11 Hummeln / 10 min
Flugaktivität am Stock, Zahl der Hummeln / 10 min ([1]; 20 DAA after first application): 12 Hummeln / 10 min
Flugaktivität am Stock, Zahl der Hummeln / 10 min ([1]; 23 DAA after first application): 14 Hummeln / 10 min
Flugaktivität am Stock, Zahl der Hummeln / 10 min ([1]; 27 DAA after first application): 11 Hummeln / 10 min
Flugaktivität am Stock, Zahl der Hummeln / 10 min ([1]; 34 DAA after first application): 6 Hummeln / 10 min
Flugaktivität am Stock, Zahl der Hummeln / 10 min ([1]; -1 DAA (before first application)): 13 Hummeln / 10 min
Flugaktivität der Hummeln [1, 8]: keine Änderung
Zahl toter Arbeiterbienen ([2]; 6 DAA a (9:30 Uhr)): 8
Zahl toter Arbeiterbienen ([2]; 6 DAA b (14:30 Uhr)): 2
Zahl toter Arbeiterbienen ([2]; 7 DAA): 8
Zahl toter Arbeiterbienen ([2]; 8 DAA): 0
Zahl toter Arbeiterbienen ([2]; 9 DAA): 0
Zahl toter Arbeiterbienen ([2]; 10 DAA): 7
Zahl toter Arbeiterbienen ([2]; 11 DAA): 2
Zahl toter Arbeiterbienen ([2]; 14 DAA): 1
Zahl toter Arbeiterbienen ([2]; 16 DAA): 1
Zahl toter Arbeiterbienen ([2]; 18 DAA): 2
Mortalität von Arbeiterbienen vor dem Bienenstock ([2]; result in words, tent test, drench, I-5 20 mg a.s. / Pflanze, Thiamethoxam 10 mg a.s. / Pflanze): keine Mortalität
Zahl toter Puppen [3, 9]: 0
Zahl toter Puppen ([3]; 75 g a.s./ha, 1 DAA): 0
Zahl toter Puppen ([3]; 75 g a.s./ha, 2 DAA): 0,3
Zahl toter Puppen ([3]; 75 g a.s./ha, 5 DAA): 0
Zahl toter Puppen ([3]; 75 g a.s./ha, 6 DAA): 0
Zahl toter Puppen ([3]; 75 g a.s./ha, 11 DAA): 0,3
Zahl toter Puppen ([3]; 75 g a.s./ha, 14 DAA): 0
Zahl toter Puppen ([3]; 75 g a.s./ha, 18 DAA): 0
Zahl toter Puppen ([3]; 75 g a.s./ha, 21 DAA): 0
Zahl toter Puppen ([3]; 75 g a.s./ha, 25 DAA): 0
Zahl toter Puppen [3, 10]: 0
Zahl toter Puppen [3, 11]: 0
Zahl toter Puppen ([3]; 150 g a.s./ha, 1 DAA): 0
Zahl toter Puppen ([3]; 150 g a.s./ha, 2 DAA): 0
Zahl toter Puppen ([3]; 150 g a.s./ha, 5 DAA): 0
Zahl toter Puppen ([3]; 150 g a.s./ha, 6 DAA): 0
Zahl toter Puppen ([3]; 150 g a.s./ha, 11 DAA): 0
Zahl toter Puppen ([3]; 150 g a.s./ha, 14 DAA): 0,7
Zahl toter Puppen ([3]; 150 g a.s./ha, 18 DAA): 0
Zahl toter Puppen ([3]; 150 g a.s./ha, 21 DAA): 0
Zahl toter Puppen ([3]; 150 g a.s./ha, 25 DAA): 0
Zahl toter Puppen [3, 12]: 0
Mortalität von Puppen vor dem Bienenstock ([3]; result in words, tunnel test, spray, I-5 75 und 150 g a.s./ha, Fenoxycarb 150 g a.s./ha): keine Mortalität
Anteil an Zellen: Eier [4, 13]: 13,9%
Anteil an Zellen: Larven [4, 13]: 9,2%
Anteil an Zellen: Leer [4, 13]: 26,7%
Anteil an Zellen: Nektar [4, 13]: 12,5%
Anteil an Zellen: Pollen [4, 13]: 3,1%
Anteil an Zellen: Puppen [4, 13]: 34,7%
Anteil an Zellen: Eier [4, 14]: 14,7%
Anteil an Zellen: Larven [4, 14]: 8,3%
Anteil an Zellen: Leer [4, 14]: 32,8%
Anteil an Zellen: Nektar [4, 14]: 12,5%
Anteil an Zellen: Pollen [4, 14]: 4,4%
Anteil an Zellen: Puppen [4, 14]: 27,2%
Anteil an Zellen: Eier [4, 15]: 21,4%
Anteil an Zellen: Larven [4, 15]: 19,7%
Anteil an Zellen: Leer [4, 15]: 30,6%
Anteil an Zellen: Nektar [4, 15]: 8,6%
Anteil an Zellen: Pollen [4, 15]: 5%
Anteil an Zellen: Puppen [4, 15]: 14,7%
Anteil an Zellen: Eier [4, 16]: 16,7%
Anteil an Zellen: Larven [4, 16]: 6,7%
Anteil an Zellen: Leer [4, 16]: 20,7%
Anteil an Zellen: Nektar [4, 16]: 13,2%
Anteil an Zellen: Pollen [4, 16]: 3,3%
Anteil an Zellen: Puppen [4, 16]: 39,4%
Anteil an Zellen: Eier [4, 17]: 13,6%
Anteil an Zellen: Larven [4, 17]: 16,4%
Anteil an Zellen: Leer [4, 17]: 20,8%
Anteil an Zellen: Nektar [4, 17]: 14,2%
Anteil an Zellen: Pollen [4, 17]: 1,4%
Anteil an Zellen: Puppen [4, 17]: 33,6%
Anteil an Zellen: Eier [4, 18]: 15%
Anteil an Zellen: Larven [4, 18]: 6,1%
Anteil an Zellen: Leer [4, 18]: 29,4%
Anteil an Zellen: Nektar [4, 18]: 14,4%
Anteil an Zellen: Pollen [4, 18]: 3,9%
Anteil an Zellen: Puppen [4, 18]: 31,1%
Anteil an Zellen: Eier [4, 19]: 17,8%
Anteil an Zellen: Larven [4, 19]: 16,7%
Anteil an Zellen: Leer [4, 19]: 34,4%
Anteil an Zellen: Nektar [4, 19]: 12,2%
Anteil an Zellen: Pollen [4, 19]: 4,2%
Anteil an Zellen: Puppen [4, 19]: 14,7%
Anteil an Zellen: Eier [4, 20]: 15,3%
Anteil an Zellen: Larven [4, 20]: 7,2%
Anteil an Zellen: Leer [4, 20]: 21,9%
Anteil an Zellen: Nektar [4, 20]: 16,4%
Anteil an Zellen: Pollen [4, 20]: 4,2%
Anteil an Zellen: Puppen [4, 20]: 35%
Brutentwicklung ([4]; 6 Tage nach Applikation): keine Änderung
Brutentwicklung ([4]; 14 Tage nach Applikation): keine Änderung
Brutentwicklung ([4]; 27 Tage nach Applikation): keine Änderung
Aktivität der Nahrungssuche, Zahl der Bienen / min / 4 m^2 ([5]; 5 DAA): 26 Bienen / min / 4 m^2
Aktivität der Nahrungssuche, Zahl der Bienen / min / 4 m^2 ([5]; 6 DAA b (14:30 Uhr)): 73 Bienen / min / 4 m^2
Aktivität der Nahrungssuche, Zahl der Bienen / min / 4 m^2 ([5]; 7 DAA): 21 Bienen / min / 4 m^2
Aktivität der Nahrungssuche, Zahl der Bienen / min / 4 m^2 ([5]; 8 DAA): 70 Bienen / min / 4 m^2
Aktivität der Nahrungssuche, Zahl der Bienen / min / 4 m^2 ([5]; 9 DAA): 41 Bienen / min / 4 m^2
Aktivität der Nahrungssuche, Zahl der Bienen / min / 4 m^2 ([5]; 11 DAA): 31 Bienen / min / 4 m^2
Aktivität der Nahrungssuche, Zahl der Bienen / min / 4 m^2 ([5]; 13 DAA): 86 Bienen / min / 4 m^2
Aktivität der Nahrungssuche, Zahl der Bienen / min / 4 m^2 ([5]; 15 DAA): 43 Bienen / min / 4 m^2
Aktivität der Nahrungssuche, Zahl der Bienen / min / 4 m^2 ([5]; 16 DAA): 51 Bienen / min / 4 m^2
Aktivität der Nahrungssuche, Zahl der Bienen / min / 4 m^2 ([5]; 17 DAA): 98 Bienen / min / 4 m^2
Aktivität der Nahrungssuche, Zahl der Bienen / min / 4 m^2 ([5]; 18 DAA): 71 Bienen / min / 4 m^2
Aktivität der Nahrungssuche ([5]; result in words, tent test, drench, I-5 20 mg a.s. / Pflanze, Thiamethoxam 10 mg a.s. / Pflanze (13 Tage nach Applikation)): keine Änderung
Zahl der Blüten: markierte Blüten ([6]; DAA 13 after first application): 59,4
Zahl der Blüten: offene Blüten ([6]; DAA 13 after first application): 67,3
Zahl der Blüten: markierte Blüten ([6]; DAA 22 after first application): 53,7
Zahl der Blüten: offene Blüten ([6]; DAA 22 after first application): 59,3
Bestäubungsaktivität der Hummeln [6, 8]: keine Änderung
Zahl toter Arbeiterbienen ([7]; 75 g a.s./ha, 0 DAA b (15:15 Uhr)): 0
Zahl toter Arbeiterbienen [7, 9]: 0,7
Zahl toter Arbeiterbienen ([7]; 75 g a.s./ha, 1 DAA): 0
Zahl toter Arbeiterbienen ([7]; 75 g a.s./ha, 2 DAA): 0,3
Zahl toter Arbeiterbienen ([7]; 75 g a.s./ha, 3 DAA): 0,3
Zahl toter Arbeiterbienen ([7]; 75 g a.s./ha, 4 DAA): 3,7
Zahl toter Arbeiterbienen ([7]; 75 g a.s./ha, 5 DAA): 0,3
Zahl toter Arbeiterbienen ([7]; 75 g a.s./ha, 6 DAA): 4,3
Zahl toter Arbeiterbienen ([7]; 75 g a.s./ha, 11 DAA): 0
Zahl toter Arbeiterbienen [7, 10]: 0,3
Zahl toter Arbeiterbienen ([7]; 150 g a.s./ha, 0 DAA b (15:15 Uhr)): 1,3
Zahl toter Arbeiterbienen [7, 11]: 0,3
Zahl toter Arbeiterbienen ([7]; 150 g a.s./ha, 1 DAA): 0
Zahl toter Arbeiterbienen ([7]; 150 g a.s./ha, 2 DAA): 0
Zahl toter Arbeiterbienen ([7]; 150 g a.s./ha, 3 DAA): 0
Zahl toter Arbeiterbienen ([7]; 150 g a.s./ha, 4 DAA): 1,7
Zahl toter Arbeiterbienen ([7]; 150 g a.s./ha, 5 DAA): 0,7
Zahl toter Arbeiterbienen ([7]; 150 g a.s./ha, 6 DAA): 2
Zahl toter Arbeiterbienen ([7]; 150 g a.s./ha, 11 DAA): 1,7
Zahl toter Arbeiterbienen [7, 12]: 0,3
Mortalität von Arbeiterbienen vor dem Bienenstock ([7]; result in words, tunnel test, spray, I-5 75 und 150 g a.s./ha, Thiamethoxam 50 g a.s./ha): keine Mortalität
